Data reported in patent US20220313651A1, “INHIBITORS OF ZIKA VIRUS INFECTION” (priority 2019, published 2022).

Key:
[1] = test system: ZIKV human strain PAN2016 (2016/Panama); experiment: Plaque reduction inhibition assay in Vero E6 cells, ZIKV PAN2016; type: cell-based, Zika virus (ZIKV); conditions: Vero E6 cells; Table 7, gossypol derivatives; read-out: ZIKV strains IC50, PAN2016
Procedure: (§1) A plaque reduction inhibition assay was carried out to measure the inhibitory activity of Z-medicaments against infections of ZIKV and DENV. […] The compound-virus mixtures were then transferred to Vero E6 cells (10^5/well) and incubated at 37° C. for 1 h.

[2] = test system: ZIKV human strain R116265 (2016/Mexico); experiment: Plaque reduction inhibition assay in Vero E6 cells, ZIKV R116265; type: cell-based, Zika virus (ZIKV); conditions: Table 7, gossypol derivatives, read-out: ZIKV strains IC50, R116265
Description: (§2) Vero E6 and LLC-MK2 cells were maintained in Dulbecco's Modified Eagle Medium (DMEM) supplemented with 8% fetal bovine serum (FBS) and penicillin and streptomycin (P/S). C6/36 cells were maintained in Eagle's Minimal Essential Medium (EMEM) supplemented with 5% FBS and P/S. ZIKV strains, including human strains PAN2016 (2016/Panama), R116265 (2016/Mexico), PAN2015 (2015/Panama), FLR (2015/Colombia), R103451 (2015/Honduras), PRVABC59 (2015/Puerto Rico), PLCal_ZV (2013/Thailand), and IbH 30656 (1968/Nigeria), mosquito strain MEX 2-81 (2016/Mexico), and rhesus macaque strain MR 766 (1947/Uganda), were used in the studies. These ZIKV strains were cultured in Vero E6 cells, and viral titers were detected by a standard plaque-forming assay. DENV human strains, including type 1: DENV-1-V1792 (2007/Vietnam), type 2: DENV-2-V594 (2006/Puerto Rico), type 3: DENV-3-V1043 (2006/Puerto Rico), and type 4: DENV-4-PR 06-65-740 (2006/Puerto Rico), were cultured in C6/36 cells, and the viral titers were determined by plaque-forming assay as described above.
as §1, with “h. […] The cells were washed thoroughly with PBS, and overlaid with DMEM containing 1% carboxymethyl cellulose and 2% FBS, followed by in vitro culture at 37° C. for 4-5 days and then staining with 0.5% crystal violet.” for “h.”
(§3) After removal of the unbound compounds by centrifugation after addition of 3% PEG-6000, ZIKV was incubated with Vero E6 cells at 37° C. for 1 h. The cells were then washed with PBS, overlaid with DMEM containing 1% carboxymethyl cellulose and 2% FBS, and cultured at 37° C. for 4-5 days, followed by staining with 0.5% crystal violet.

[3] = test system: ZIKV human strain PAN2015 (2015/Panama); experiment: microbe, parasite or virus in culture; type: cell-based, Zika virus (ZIKV); conditions: Vero E6 cells; Table 7, gossypol derivatives; read-out: ZIKV strains IC50, PAN2015
Description: as §2
as §1, with “h. […] The cells were washed thoroughly with PBS, and overlaid with DMEM containing 1% carboxymethyl cellulose and 2% FBS, followed by in vitro culture at 37° C. for 4-5 days and then staining with 0.5% crystal violet.” for “h.”
as §3

[4] = test system: ZIKV human strain FLR (2015/Colombia); experiment: Plaque reduction inhibition assay in Vero E6 cells, ZIKV FLR; type: cell-based, Zika virus (ZIKV); conditions: Vero E6 cells; Table 7, gossypol derivatives; read-out: ZIKV strains IC50, FLR
Procedure: as §1

[5] = test system: ZIKV human strain R103451 (2015/Honduras); experiment: Plaque reduction inhibition assay in Vero E6 cells, ZIKV R103451; type: cell-based, Zika virus (ZIKV); conditions: Vero E6 cells; Table 7, gossypol derivatives; read-out: ZIKV strains IC50, R103451
Procedure: as §1

[6] = test system: ZIKV human strain PRVABC59 (2015/Puerto Rico); experiment: Plaque reduction inhibition assay in Vero E6 cells, ZIKV PRVABC59; type: cell-based, Zika virus (ZIKV); conditions: Vero E6 cells; Table 7, gossypol derivatives; read-out: ZIKV strains IC50, PRVABC59
Procedure: as §1

[7] = test system: ZIKV human strain PLCal_ZV (2013/Thailand); experiment: Plaque reduction inhibition assay in Vero E6 cells, ZIKV PLCal_ZV; type: cell-based, Zika virus (ZIKV); conditions: Vero E6 cells; Table 7, gossypol derivatives; read-out: ZIKV strains IC50, PLCal_ZV
Procedure: as §1

[8] = test system: ZIKV human strain IbH 30656 (1968/Nigeria); experiment: Plaque reduction inhibition assay in Vero E6 cells, ZIKV IbH 30656; type: cell-based, Zika virus (ZIKV); conditions: Table 7, gossypol derivatives, read-out: ZIKV strains IC50, IbH 30656
Procedure: as §1

[9] = test system: ZIKV mosquito strain MEX 2-81 (2016/Mexico); experiment: Plaque reduction inhibition assay in Vero E6 cells, ZIKV MEX 2-81; type: cell-based, Zika virus (ZIKV); conditions: Vero E6 cells; Table 7, gossypol derivatives; read-out: ZIKV strains IC50, MEX 2-81
Description: as §2
as §1, with “h. […] The cells were washed thoroughly with PBS, and overlaid with DMEM containing 1% carboxymethyl cellulose and 2% FBS, followed by in vitro culture at 37° C. for 4-5 days and then staining with 0.5% crystal violet.” for “h.”
as §3

[10] = test system: ZIKV rhesus macaque strain MR 766 (1947/Uganda); experiment: Plaque reduction inhibition assay in Vero E6 cells, ZIKV MR 766; type: cell-based, Zika virus (ZIKV); conditions: Vero E6 cells; Table 7, gossypol derivatives; read-out: ZIKV strains IC50, MR766
Procedure: as §1

[11] = test system: Vero E6 cells; experiment: in vitro; conditions: Vero E6 cells
Procedure: The cytotoxicity of the Z-medicaments in Vero E6 (ZIKV target cells) was evaluated using the Cell Counting Kit-8 (CCK8).
Briefly, compounds at 2-fold serial dilutions were added to cells (2.0×10^4/well) pre-seeded in 96-well plates. The cells were cultured at 37° C. for 3 days, and incubated with CCK8 solution, followed by measurement of absorbance at 450 nm (A450 value) using microplate reader.

[12] = molecular target: ZIKV full-length E protein (Zika virus, UniProt Q32ZE1); experiment: ELISA binding to ZIKV full-length E protein
Procedure: (§4) Binding of compounds (NPs) to ZIKV full-length E (FIG. 3A), EDIII (FIG. 3B), and NS2B-NS3 (FIG. 3C) proteins, was detected by ELISA. The percent binding was reported in the presence or absence of serially diluted NPs using the formula (1-[E/EDIII-NP]/[E/EDIII])×100 (for E/EDIII binding) or (1-[NS2B-NS3-NP]/[NS2B-NS3])×100 (for NSEB-NS3 binding). […] The concentrations of ZIKV EDIII and mAbs were 1.5 and 0.5 μg/ml, respectively. […] The concentrations of substrate (Bz-Nle-Lys-Lys-Arg-AMC) and ZIKV NS2B-NS3 protein were 4 μM and 1 μg/ml, respectively. The percent inhibition of protease activity was calculated in the presence or absence of serially diluted compounds using the formula (1-[NS2B-NS3-substrate-NP]/[NS2B-NS3-substrate])×100. The IC50 values were calculated based on the percent inhibition. The data are expressed as mean±s.e.m. (n=4).
(§5) The data are expressed as mean±s.e.m. (n=4), and DMSO was used as negative control. Surface plasmon resonance (SPR) analysis of the binding between ST087010 and ZIKV EDIII (FIG. 6D) or NS2B-NS3 (FIG. 6E) protein was performed. Binding affinity was shown as KD (equilibrium dissociation constant).
(§6) The binding between the Z-medicament and ZIKV full-length E protein, EDIII protein (E residues 298-409 fused with a C-terminal human Fc), or NS2B-NS3 protease was carried out by ELISA. Briefly, ELISA plates were pre-coated with the proteins described above at 4° C. overnight, and blocked with 2% fat-free milk at 37° C. for 2 h. Serial dilutions of the Z-medicament or DMSO (control) were then added to the plates and incubated at 37° C. for 2 h. The plates were washed with PBS containing Tween-20 (PBST), and incubated at 37° C. for 1 h with ZIKV EDIII-specific human mAb ZKA64-LALA (0.5 μg/ml) (for binding to ZIKV full-length E and EDIII proteins), or mouse sera specific to ZIKV NS2B-NS3 (for binding to NS2B-NS3 protease). The plates were washed with PBST, and incubated with horseradish peroxidase (HRP)-conjugated anti-human IgG-Fab (1:3000) or anti-mouse IgG (1:3000) antibody at 37° C. for 1 h. The 3,3′,5,5′-tetramethylbenzidine (TMB) substrate was added to the plates, and the reaction was stopped by 1 N H2SO4. Absorbance at 450 nm (A450 value) was measured by ELISA microplate reader.
(§7) Briefly, ELISA plates were coated with each protein (1 μg/ml) at 4° C. overnight, and were then incubated with blocking buffer containing 2% fat-free milk in PBST at 37° C. for 2 h. The above compounds, or DMSO control, at serial dilutions were added to the plates, and incubated at 37° C. for 2 h. After three washes using PBST, the plates were incubated at 37° C. for 2 h with ZIKV EDIII-specific human mAb ZKA64-LALA (0.5 μg/ml) (for binding to ZIKV full-length E or EDIII protein), or ZIKV NS2B-NS3-specific mouse sera (for binding to NS2B-NS3 protein). After further washes, the plates were incubated with HRP-conjugated anti-human IgG-Fab (1:3,000) or anti-mouse IgG (1:3,000) antibody at 37° C. for 1 h. The plates were incubated with substrate TMB, and the reaction was stopped by addition of 1 N H2SO4. Absorbance at 450 nm (A450 values) was measured by an ELISA microplate reader. EC50 values were calculated.

[13] = molecular target: T1, ZIKV EDIII protein (E residues 298-409) (Zika virus, UniProt Q32ZE1, D679E/I627V/V603I/V629A); type: binding; conditions: ELISA
T1 construct: human Fc (C)
Procedure: as §4, §5, §6
Briefly, ELISA plates were coated with each protein (1 μg/ml) at 4° C. overnight, and were then incubated with blocking buffer containing 2% fat-free milk in PBST at 37° C. for 2 h. The above compounds, or DMSO control, at serial dilutions were added to the plates, and incubated at 37° C. for 2 h. […] Absorbance at 450 nm (A450 values) was measured by an ELISA microplate reader. EC50 values were calculated.

[14] = molecular target: T2, ZIKV NS2B-NS3 protease (Zika virus, UniProt Q32ZE1); experiment: ELISA binding to ZIKV NS2B-NS3 protease
T2 construct: 49-97) and NS2 protein (residues 1-185) through a covalent; made in house; host or cells: E. coli
Procedure: as §4, §5, §6
as §7, with “h.” for “h. The plates were incubated with substrate TMB, and the reaction was stopped by addition of 1 N H2SO4. Absorbance at 450 nm (A450 values) was measured by an ELISA microplate reader. EC50 values were calculated.”

Row | Structure (SMILES) | IC50 [1] [µM] | IC50 [2] [µM] | IC50 [3] [µM] | IC50 [4] [µM] | IC50 [5] [µM] | IC50 [6] [µM] | IC50 [7] [µM] | IC50 [8] [µM] | IC50 [9] [µM] | IC50 [10] [µM] | CC50 ([11]; Table 7, gossypol derivatives) [µM] | CC50 ([11]; 3 days, CCK8, Table 1) [µM] | Binding to ZIKV full-length E protein (in words) [12] | Binding to ZIKV EDIII protein (in words) [13] | Binding to ZIKV NS2B-NS3 protein (in words) [14]
1 | Cc1cc2c(C(C)C)c(O)c(O)c3c2c(c1-c1c(C)cc2c(C(C)C)c(O)c(O)c4c2c1OC4N)OC3N (stereo not shown) [ST069299] | 2.34 ± 0.06 | 2.57 ± 0.2 | 2.33 ± 0.1 | 3.27 ± 0.25 | 3.85 ± 0.11 | 3.33 ± 0.3 | 3.98 ± 0.54 | 2.54 ± 0.44 | 3.89 ± 0.24 | 4.88 ± 0.05 | 25.9 ± 2.7 |  |  |  | 
2 | CCC(O)/N=C/c1c(O)c(O)c(C(C)C)c2cc(C)c(-c3c(C)cc4c(C(C)C)c(O)c(O)c(/C=N/C(O)CC)c4c3O)c(O)c12 (stereo not shown) [ST005138] | 2.29 ± 0.01 | 3.13 ± 0.29 | 2.18 ± 1.19 | 3.44 ± 0.18 | 3.05 ± 0.09 | 3.89 ± 0.32 | 3.87 ± 0.54 | 2.4 ± 0.27 | 2.89 ± 0.12 | 2.52 ± 0.04 | 22.82 ± 0.02 |  |  |  | 
3 | Cc1cc2nc[nH]c2c(N=Cc2c(O)c(O)c(C(C)C)c3cc(C)c(-c4c(C)cc5c(C(C)C)c(O)c(O)c(C=Nc6c(C)c(C)cc7nc[nH]c67)c5c4O)c(O)c23)c1C [ST092971] | 4.98 ± 0.01 | 7.97 ± 0.17 | 5.01 ± 0.36 | 6.89 ± 0.05 | 6.64 ± 0.27 | 9.1 ± 0.11 | 6.72 ± 0.2 | 5.16 ± 0.21 | 13.5 ± 0.58 | 5.2 ± 0.37 | 72.1 ± 1.91 |  |  |  | 
4 | CC(C)C[C@H](NC(=O)[C@H](Cc1ccccc1)NC(=O)c1cnccn1)B(O)O [Bortezomib, bortezomib, reference compound] |  |  |  |  |  |  |  |  |  |  |  | 17 ± 0.2 | bound to no ZIKV proteins tested | bound to no ZIKV proteins tested | bound to no ZIKV proteins tested
